Measurements reported in US6713475B2, “Tricyclic benzodiazepines as vasopressin receptor antagonists” (Ortho-McNeil Pharmaceutical, Inc., priority 1999, dated 2004).

Assays:
[1] = target: V2 (Homo sapiens, UniProt P30518); assay: In vitro recombinant vasopressin receptor binding assay (V2 Bdg), displacement of 3H-arginine vasopressin; set-up: expressed in transfected cells; host or cells: HEK-293; settings: for V2 Bdg % inh: 0.1 uM, printed in parentheses in place of IC50; for IC50: membrane with cloned human V-2 receptor (HEK-293)
Procedure, shortened: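 Displacement of ³H-vasopressin from membranes of HEK-293 cells bearing cloned human V-2 receptor, incubated with test compound one hour at room temperature. Bound label was collected on PEI-soaked GF/C filters, washed with cold saline/0.05% Tween 20, and counted by scintillation.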

[2] = target: T1, human V-1 receptor (Homo sapiens, UniProt P37288); assay: In vitro recombinant vasopressin receptor binding assay (V1 Bdg), displacement of 3H-arginine vasopressin; settings: for inhibition at 0.1 µM: read-out: V1 Bdg (% inh, 0.1 uM)
T1 construct: expressed in transfected cells; host or cells: HEK-293
Procedure, shortened: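 Membranes from HEK-293 cells bearing cloned human V-1 receptor, incubated 1 h at room temperature with 0.65-0.75 nM 3H-arginine-8-vasopressin in pH 7.5 Tris/MgCl2/BSA buffer with protease inhibitors. Filtration onto GF/C, scintillation count. Non-specific binding with 1.25 uM arginine-8-vasopressin.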

T1 sequence (P37288 whole entry): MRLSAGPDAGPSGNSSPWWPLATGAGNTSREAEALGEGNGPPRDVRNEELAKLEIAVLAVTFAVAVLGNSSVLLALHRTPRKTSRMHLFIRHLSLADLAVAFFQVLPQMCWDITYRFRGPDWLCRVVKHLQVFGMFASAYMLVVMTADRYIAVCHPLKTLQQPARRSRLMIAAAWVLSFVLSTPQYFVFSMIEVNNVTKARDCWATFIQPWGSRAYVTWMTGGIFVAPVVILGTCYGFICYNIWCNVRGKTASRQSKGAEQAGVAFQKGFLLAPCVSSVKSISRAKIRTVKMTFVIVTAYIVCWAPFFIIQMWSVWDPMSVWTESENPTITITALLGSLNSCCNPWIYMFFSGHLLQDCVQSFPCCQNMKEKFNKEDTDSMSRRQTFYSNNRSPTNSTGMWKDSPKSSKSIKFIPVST

Row | IC50 [1] | inhibition at 0.1 µM [2] | Molecule | V2 Bdg % inh [1] | V1 Bdg % inh ([2]; 1 uM) | also measured
1 |  |  | CN1CCN2Cc3ccccc3N(C(=O)c3ccc(NC(=O)c4c(Cl)cccc4Cl)cc3Cl)CC2C1 (racemic) [Compound 98, (RS)-2,6-Dichloro-N-[3-chloro-4-(1,3,4,12a-tetrahydro-2-methyl-6H-[1,4]pyrazino[4,3-a][1,4]-benzodiazepin-11(12H)-yl-carbonyl)phenyl]benzamide] | (12%/0.1 uM) | (26%/1 uM) | 
2 |  |  | (RS)-2-Phenyl-N-[4-(9-chloro-1,3,4,12a-tetrahydro-6H-[1,4]thiazino[4,3-a][1,4]-benzodiazepin-11(12H)-yl-carbonyl)phenyl]benzamide [Compound 34] | (41%/0.1 uM) |  | V1 Bdg % inh ([2]; 10 uM): 1%/10 uM
3 |  |  | COc1cc(NC(=O)c2ccccc2-c2ccccc2)ccc1C(=O)N1CC2CN(C)CCN2Cc2ccccc21 (racemic) [Compound 84, (RS)-2-Phenyl-N-[3-methoxy-4-(1,3,4,12a-tetrahydro-2-methyl-6H-[1,4]pyrazino[4,3-a][1,4]-benzodiazepin-11(12H)-yl-carbonyl)phenyl]benzamide] | (36%/0.1 uM) | (10%/1 uM) | 
4 |  |  | Cc1ccccc1C(=O)Nc1c(C)cc(C(=O)N2CC3CN(C)CCN3Cc3ccccc32)cc1C (racemic) [Compound 80, (RS)-2-Methyl-N-[2,6-dimethyl-4-(1,3,4,12a-tetrahydro-2-methyl-6H-[1,4]pyrazino[4,3-a][1,4]-benzodiazepin-11(12H)-yl-carbonyl)phenyl]benzamide] | (6%/0.1 uM) | (19%/1 uM) | 
5 |  |  | Cc1cc(NC(=O)c2ccccc2-c2ccccc2)ccc1C(=O)N1CC2CN(C)CCN2Cc2ccccc21 (racemic) [Compound 89, (RS)-2-Phenyl-N-[3-methyl-4-(1,3,4,12a-tetrahydro-2-methyl-6H-[1,4]pyrazino[4,3-a][1,4]-benzodiazepin-11(12H)-yl-carbonyl)phenyl]benzamide] | (56%/0.1 uM) | (51%/1 uM) | 
6 | 25 nM | 20% | O=C(Nc1ccc(C(=O)N2CC3COCCN3Cc3ccccc32)c(Cl)c1)c1cc(F)c(F)c(F)c1F (racemic) [Compound 16, (RS)-2,3,4,5-Tetrafluoro-N-[3-chloro-4-(1,3,4,12a-tetrahydro-6H-[1,4]oxazino[4,3-a][1,4]-benzodiazepin-11(12H)-yl-carbonyl)phenyl]benzamide] |  |  | 
7 |  |  | Cc1ccccc1C(=O)Nc1ccc(C(=O)N2CC3CN(C)CCN3Cc3ccccc32)cc1 (racemic) [Compound 86, (RS)-2-Methyl-N-[4-(1,3,4,12a-tetrahydro-2-methyl-6H-[1,4]pyrazino[4,3-a][1,4]-benzodiazepin-11(12H)-yl-carbonyl)phenyl]benzamide] | (1%/0.1 uM) | (33%/1 uM) | 
8 |  |  | CN1CCN2Cc3ccccc3N(C(=O)c3ccc(NC(=O)c4c(F)cccc4F)cc3Cl)CC2C1 (racemic) [Compound 99, (RS)-2,6-Difluoro-N-[3-chloro-4-(1,3,4,12a-tetrahydro-2-methyl-6H-[1,4]pyrazino[4,3-a][1,4]-benzodiazepin-11(12H)-yl-carbonyl)phenyl]benzamide] | (10%/0.1 uM) | (12%/1 uM) | 
9 |  |  | (RS)-3,5-Dimethyl-N-[3-chloro-4-(1,3,4,12a-tetrahydro-6H-[1,4]thiazino[4,3-a][1,4]-benzodiazepin-11(12H)-yl-carbonyl)phenyl]benzamide [Compound 41] | (38%/0.1 uM) |  | V1 Bdg (% inh, 0.1 uM) [2]: 5%
10 | 27 nM | 24% | O=C(Nc1ccc(C(=O)N2CC3COCCN3Cc3ccccc32)c(Cl)c1)c1ccccc1SC(F)F (racemic) [Compound 19, (RS)-2-(Difluoromethylthio)-N-[3-chloro-4-(1,3,4,12a-tetrahydro-6H-[1,4]oxazino[4,3-a][1,4]-benzodiazepin-11(12H)-yl-carbonyl)phenyl]benzamide] |  |  | 
11 | 16 nM | 34% | Cc1ccccc1C(=O)Nc1ccc(C(=O)N2CC3COCCN3Cc3ccccc32)c(Cl)c1 (racemic) [Compound 24, (RS)-2-Methyl-N-[3-chloro-4-(1,3,4,12a-tetrahydro-6H-[1,4]oxazino[4,3-a][1,4]-benzodiazepin-11(12H)-yl-carbonyl)phenyl]benzamide] |  |  | 
12 | 11 nM | 1% | O=C(Nc1ccc(C(=O)N2C[C@H]3COCCN3Cc3ccccc32)c(Cl)c1)c1ccccc1-c1cccc(O)c1 [Compound 7, (S)-2-(3-Hydroxyphenyl)-N-[3-chloro-4-(1,3,4,12a-tetrahydro-6H-[1,4]oxazino[4,3-a][1,4]-benzodiazepin-11(12H)-yl-carbonyl)phenyl]benzamide] |  |  | 
13 |  |  | Cc1cc(C(=O)N2CC3CN(C)CCN3Cc3ccccc32)ccc1NC(=O)c1ccccc1-c1ccccc1 (racemic) [Compound 78, (RS)-2-Phenyl-N-[2-methyl-4-(1,3,4,12a-tetrahydro-2-methyl-6H-[1,4]pyrazino[4,3-a][1,4]-benzodiazepin-11(12H)-yl-carbonyl)phenyl]benzamide] | (5%/0.1 uM) | (2%/1 uM) | 
14 |  |  | Cc1ccc(F)c(C(=O)Nc2ccc(C(=O)N3CC4CN(C)CCN4Cc4ccccc43)c(Cl)c2)c1 (racemic) [Compound 96, (RS)-2-Fluoro-5-methyl-N-[3-chloro-4-(1,3,4,12a-tetrahydro-2-methyl-6H-[1,4]pyrazino[4,3-a][1,4]-benzodiazepin-11(12H)-yl-carbonyl)phenyl]benzamide] | (3%/0.1 uM) | (9%/1 uM) | 
15 |  |  | (RS)-2-Phenyl-N-[4-(8,9-dimethoxy-1,3,4,12a-tetrahydro-6H-[1,4]thiazino[4,3-a][1,4]-benzodiazepin-11(12H)-yl-carbonyl)phenyl]benzamide [Compound 33] | (19%/0.1 uM) |  | V1 Bdg % inh ([2]; 10 uM): 6%/10 uM
16 | 18 nM | 76% | Cc1ccc2c(c1)CN1CCSCC1CN2C(=O)c1ccc(NC(=O)c2ccccc2-c2ccccc2)cc1 (racemic) [Compound 36, (RS)-2-Phenyl-N-[4-(8-methyl-1,3,4,12a-tetrahydro-6H-[1,4]thiazino[4,3-a][1,4]-benzodiazepin-11(12H)-yl-carbonyl)phenyl]benzamide] |  |  | 
17 | 37 nM |  | CN1CCN2Cc3ccccc3N(C(=O)c3ccc(NC(=O)c4cc(F)ccc4-c4ccccc4)cc3Cl)CC2C1 (racemic) [Compound 100, (RS)-2-Phenyl-5-fluoro-N-[3-chloro-4-(1,3,4,12a-tetrahydro-2-methyl-6H-[1,4]pyrazino[4,3-a][1,4]-benzodiazepin-11(12H)-yl-carbonyl)phenyl]benzamide] |  |  | inhibition at 0.1 µM ([1]; read-out: V2 Bdg % inh): 72%; inhibition at 1 µM ([2]; 1 uM, read-out: V1 Bdg % inh): 6%
18 | 18 nM | 15% | O=C(Nc1ccc(C(=O)N2CC3COCCN3Cc3ccccc32)c(Cl)c1)c1cccc(Cl)c1F (racemic) [Compound 18, (RS)-2-Fluoro-3-chloro-N-[3-chloro-4-(1,3,4,12a-tetrahydro-6H-[1,4]oxazino[4,3-a][1,4]-benzodiazepin-11(12H)-yl-carbonyl)phenyl]benzamide] |  |  | 
19 |  |  | O=C(Nc1ccc(C(=O)N2CC3COCCN3C(=O)c3ccccc32)c(Cl)c1)c1ccccc1-c1ccccc1 (racemic) [Compound 21, (RS)-2-Phenyl-N-[3-chloro-4-(1,3,4,12a-tetrahydro-6H-[1,4]oxazino[4,3-a][1,4]-5-oxo-benzodiazepin-11(12H)-yl-carbonyl)phenyl]benzamide] | (59%/0.1 uM) |  | V1 Bdg (% inh, 0.1 uM) [2]: 2%
